Results taken from patent publication US20240092802A1, “MU-OPIOID RECEPTOR AGONISTS AND USES THEREFOR” (Kures, Inc., priority 2020, published 2024).

Each molecule was assayed against Human MOR (Homo sapiens (Human), UniProt P35372) (assay: BRET G protein activation assay, human MOR in transfected HEK-293T cells). Settings: BRET G protein activation, HEK-293T; mean ± SEM; read-out: EC50 Human MOR.
Sequence of Human MOR (P35372 whole entry): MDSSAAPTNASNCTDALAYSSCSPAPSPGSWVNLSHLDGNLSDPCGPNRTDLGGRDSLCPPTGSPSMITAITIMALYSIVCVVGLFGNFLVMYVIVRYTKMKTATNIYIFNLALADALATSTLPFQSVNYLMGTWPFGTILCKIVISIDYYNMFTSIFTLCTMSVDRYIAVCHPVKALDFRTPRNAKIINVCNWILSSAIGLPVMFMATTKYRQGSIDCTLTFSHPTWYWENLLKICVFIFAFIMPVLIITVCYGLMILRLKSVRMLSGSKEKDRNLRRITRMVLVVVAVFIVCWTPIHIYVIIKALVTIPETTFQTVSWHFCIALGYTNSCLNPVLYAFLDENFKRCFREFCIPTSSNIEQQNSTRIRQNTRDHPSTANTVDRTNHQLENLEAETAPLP
Format: cell-based
Description: Transfection. Human or mouse MOR cDNA was transfected alongside GαoB with RLuc8 inserted at position 91 (GαoB-RLuc8), Gβ1 (β1), and Gγ2 fused to the full-length mVenus at its N terminus (mVenus γ2) into HEK-293T cells (5×10^6 cells/plate) in 10-cm dishes using PEI (Polysciences Inc.; Warrington, PA) in a 1:1 ratio diluted in Opti-MEM (Life Technologies Corp.; Grand Island, NY) to assay for G protein activation as described previously (Rives, M.-L. et al. J. Biol. Chem. 2012, 287, 27050-4; Negri, A.; Rives, M.-L.; Caspers, M. J. et al. J. Chem. Inf. Model. 2013, 53, 521-526). Cells were maintained in the Dulbecco's Modified Eagle Medium (high glucose #11965; Life Technologies) supplemented with 10% FBS (Premium Select, Atlanta Biologicals; Atlanta, GA) and 100 U/mL penicillin and 100 μg/mL streptomycin (#15140, Life Technologies). After 24 hours the media was changed, and the experiment was performed 24 hours later (48 hours after transfection).
BRET. Transfected cells were dissociated and resuspended in phosphate-buffered saline (PBS). Approximately 200,000 cells/well were added to a black-framed, white well 96-well plate (#60050; Perkin Elmer; Waltham, MA). The microplate was centrifuged and the cells were resuspended in PBS. Then 5 μM of the luciferase substrate coelenterazine H was added to each well for 5 minutes. Following coelenterazine H addition, ligands were added and the BRET signal was measured at 5 minutes on a PHERAstar FS plate reader. Quantification of the BRET signal required calculating the ratio of the light emitted by the energy acceptor, mVenus (510-540 nm), over the light emitted by the energy donor, RLuc8 (485 nm). […] Dose response curves were fit using three-parameter logistics equation in GraphPad Prism 6.
`CCOC(=O)CCCCCCNC1c2ccccc2S(=O)(=O)N(C)c2ccsc21` (stereo not drawn) [compound 6, Ethyl 7-((4-methyl-5,5-dioxido-4,10-dihydrobenzo[f]thieno[3,2-c][1,2]thiazepin-10-yl)amino)heptanoate] showed an EC50 of under 10 µM. `COCCCNC1c2ccccc2S(=O)(=O)N(C)c2ccsc21` (stereo not drawn) [compound 7, 10-((3-Methoxypropyl)amino)-4-methyl-4,10-dihydrobenzo[f]thieno[3,2-c][1,2]thiazepine 5,5-dioxide] showed an EC50 of under 10 µM. Molecule `COCCCNC1c2ccccc2N(C)S(=O)(=O)c2ccccc21` (stereo not drawn) [compound 10, 11-((3-Methoxypropyl)amino)-6-methyl-6,11-dihydrodibenzo[c,f][1,2]thiazepine 5,5-dioxide] has an EC50 of under 10 µM. Work on `COCCCNC1c2cc(Br)ccc2N(C)S(=O)(=O)c2cc(Cl)ccc21` (stereo not drawn) [compound 11, 9-Bromo-3-chloro-11-((3-methoxypropyl)amino)-6-methyl-6,11-dihydrodibenzo[c,f][1,2]thiazepine 5,5-dioxide] yielded an EC50 of under 10 µM. `CC(=O)OCCCCCCNC1c2ccccc2N(C)S(=O)(=O)c2cc(Cl)ccc21` (stereo not drawn) [compound 13, 6-((3-Chloro-6-methyl-5,5-dioxido-6,11-dihydrodibenzo[c,f][1,2]thiazepin-11-yl)amino)hexyl acetate] was tested, and the EC50 was under 10 µM. With `COCCCNC1c2ccccc2N(C)S(=O)(=O)c2cc(C)ccc21` (stereo not drawn) [compound 15, 11-((3-Methoxypropyl)amino)-3,6-dimethyl-6,11-dihydrodibenzo[c,f][1,2]thiazepine 5,5-dioxide] the EC50 was under 10 µM. Molecule `CCOC(CCCNC1c2ccccc2N(C)S(=O)(=O)c2cc(Cl)ccc21)OCC` (stereo not drawn) [compound 24, 3-Chloro-11-((4,4-diethoxybutyl)amino)-6-methyl-6,11-dihydrodibenzo[c,f][1,2]thiazepine 5,5-dioxide] has an EC50 of under 10 µM. For `CCCCCCCNC1c2ccccc2N(C)S(=O)(=O)c2cc(Cl)ccc21` (stereo not drawn) [compound 26, 3-Chloro-11-(heptylamino)-6-methyl-6,11-dihydrodibenzo [c,f][1,2]thiazepine 5,5-dioxide], the EC50 was under 10 µM. `COCCCNC1c2ccccc2N(C)S(=O)(=O)c2cc(OC)ccc21` (stereo not drawn) [compound 27, 3-Methoxy-11-((3-methoxypropyl)amino)-6-methyl-6,11-dihydrodibenzo [c,f][1,2]thiazepine 5,5-dioxide] gave an EC50 of under 10 µM. Work on `COCCCNC1c2ccccc2N(C)S(=O)(=O)c2cc(Oc3ccccc3)ccc21` (stereo not drawn) [compound 29, 11-((3-Methoxypropyl)amino)-6-methyl-3-phenoxy-6,11-dihydrodibenzo [c,f][1,2]thiazepine 5,5-dioxide] yielded an EC50 of under 10 µM. Molecule `CN1c2ccccc2C(NCCCC2OCCCO2)c2ccc(Cl)cc2S1(=O)=O` (stereo not drawn) [compound 31, 11-((3-(1,3-Dioxan-2-yl)propyl)amino)-3-chloro-6-methyl-6,11-dihydrodibenzo[c,f][1,2]thiazepine 5,5-dioxide] has an EC50 of under 10 µM. Work on `CSCCCNC1c2ccccc2N(C)S(=O)(=O)c2cc(Cl)ccc21` (stereo not drawn) [compound 33, 3-Chloro-6-methyl-11-((3-(methylthio)propyl)amino)-6,11-dihydrodibenzo[c,f][1,2]thiazepine 5,5-dioxide] yielded an EC50 of under 10 µM. Work on `CC(C)OCCCNC1c2ccccc2N(C)S(=O)(=O)c2cc(Cl)ccc21` (stereo not drawn) [compound 35, 3-Chloro-11-((3-isopropoxypropyl)amino)-6-methyl-6,11-dihydrodibenzo [c,f][1,2]thiazepine 5,5-dioxide] yielded an EC50 of under 10 µM. For `COCCOCCNC1c2ccccc2N(C)S(=O)(=O)c2cc(Cl)ccc21` (stereo not drawn) [compound 36, 3-Chloro-11-((2-(2-methoxyethoxy)ethyl)amino)-6-methyl-6,11-dihydrodibenzo[c,f][1,2]thiazepine 5,5-dioxide], the EC50 was under 10 µM. In the case of `COCCCCNC1c2ccccc2N(C)S(=O)(=O)c2cc(Cl)ccc21` (stereo not drawn) [compound 39, 3-Chloro-11-((4-methoxybutyl)amino)-6-methyl-6,11-dihydrodibenzo [c,f][1,2]thiazepine 5,5-dioxide], the EC50 is reported as under 10 µM. `COCCNC1c2ccccc2N(C)S(=O)(=O)c2cc(Cl)ccc21` (stereo not drawn) [compound 42, 3-Chloro-11-((2-methoxyethyl)amino)-6-methyl-6,11-dihydrodibenzo [c,f][1,2]thiazepine 5,5-dioxide] was tested, and the EC50 was under 10 µM. For `COCCCNC1c2ccccc2S(=O)(=O)N(C)c2c(Br)csc21` (stereo not drawn) [compound 43, 3-Bromo-10-((3-methoxypropyl)amino)-4-methyl-4, 10-dihydrobenzo[f]thieno[3,2-c][1,2]thiazepine 5,5-dioxide], the EC50 was under 20 µM. `CN1c2ccccc2C(NCC2CCOC2)c2ccc(Cl)cc2S1(=O)=O` (stereo not drawn) [compound 46, 3-chloro-6-methyl-11-(((tetrahydrofuran-3-yl)methyl)amino)-6,11-dihydrodibenzo[c,f][1,2]thiazepine 5,5-dioxide] gave an EC50 of under 10 µM. `CN1CCCC1CCNC1c2ccccc2N(C)S(=O)(=O)c2cc(Cl)ccc21` (stereo not drawn) [compound 47, 3-chloro-6-methyl-11-((2-(1-methylpyrrolidin-2-yl)ethyl)amino)-6,11-dihydrodibenzo[c,f][1,2]thiazepine 5,5-dioxide] showed an EC50 of under 20 µM. `COCCCNC1c2ccccc2S(=O)(=O)N(C)c2c(OC)cccc21` (stereo not drawn) [compound 50, 7-Methoxy-11-((3-methoxypropyl)amino)-6-methyl-6,11-dihydrodibenzo [c,f][1,2]thiazepine 5,5-dioxide] showed an EC50 of under 20 µM. `COCCCNC1c2ccccc2N(C)S(=O)(=O)c2cc([S+](C)[O-])ccc21` (stereo not drawn) [compound 55, 11-((3-Methoxypropyl)amino)-6-methyl-3-(methylsulfinyl)-6,11-dihydrodibenzo[c,f][1,2]thiazepine 5,5-dioxide] gave an EC50 of under 20 µM. Work on `COCCCNC1c2ccccc2N(C)S(=O)(=O)c2cc(-c3ccccc3)ccc21` (stereo not drawn) [compound 56, 11-((3-Methoxypropyl)amino)-6-methyl-3-phenyl-6,11-dihydrodibenzo[c,f][1,2]thiazepine 5,5-dioxide] yielded an EC50 of under 10 µM. For `CN1c2ccccc2C(NCCCCCCC(=O)NCCO)c2ccc(Cl)cc2S1(=O)=O` (stereo not drawn) [compound 57, 7-((3-Chloro-6-methyl-5,5-dioxido-6,11-dihydrodibenzo [c,f][1,2]thiazepin-11-yl)amino)-N-(2-hydroxyethyl) heptanamide], the EC50 was under 10 µM. Work on `CN1c2ccccc2C(NCCCCCCC2=NCCO2)c2ccc(Cl)cc2S1(=O)=O` (stereo not drawn) [compound 58, 3-Chloro-11-((6-(4,5-dihydrooxazol-2-yl)hexyl)amino)-6-methyl-6,11-dihydrodibenzo[c,f][1,2]thiazepine 5,5-dioxide] yielded an EC50 of under 10 µM. `COCCCNC1c2ccccc2N(C)S(=O)(=O)c2cc(OC(C)=O)ccc21` (stereo not drawn) [compound 59, 11-((3-Methoxypropyl)amino)-6-methyl-5,5-dioxido-6,11-dihydrodibenzo[c,f][1,2]thiazepin-3-yl acetate] was tested, and the EC50 was under 10 µM. Molecule `COCCCNC1c2ccccc2N(C)S(=O)(=O)c2ccc(Cl)cc21` (stereo not drawn) [compound 60, 2-Chloro-11-((3-methoxypropyl)amino)-6-methyl-6,11-dihydrodibenzo [c,f][1,2]thiazepine 5,5-dioxide] has an EC50 of under 20 µM. In the case of `COCCCNC1c2ccccc2N(C)S(=O)(=O)c2cc(SC(C)C)ccc21` (stereo not drawn) [compound 63, 3-(Isopropylthio)-11-((3-methoxypropyl)amino)-6-methyl-6,11-dihydrodibenzo[c,f][1,2]thiazepine 5,5-dioxide], the EC50 is reported as under 10 µM. Molecule `CCSc1ccc2c(c1)S(=O)(=O)N(C)c1ccccc1C2NCCCOC` (stereo not drawn) [compound 64, 3-(Ethylthio)-11-((3-methoxypropyl)amino)-6-methyl-6,11-dihydrodibenzo[c,f][1,2]thiazepine 5,5-dioxide] has an EC50 of under 10 µM. Molecule `CCN1c2ccccc2C(NCCCOC)c2ccccc2S1(=O)=O` (stereo not drawn) [compound 65, 6-Ethyl-11-((3-methoxypropyl)amino)-6,11-dihydrodibenzo[c,f][1,2]thiazepine 5,5-dioxide] has an EC50 of over 20 µM. `COC(C)CCNC1c2ccccc2N(C)S(=O)(=O)c2cc(Cl)ccc21` (stereo not drawn) [compound 67, 3-Chloro-11-((3-methoxybutyl)amino)-6-methyl-6,11-dihydrodibenzo [c,f][1,2]thiazepine 5,5-dioxide] showed an EC50 of under 10 µM. For `COCC(C)CNC1c2ccccc2N(C)S(=O)(=O)c2cc(Cl)ccc21` (stereo not drawn) [compound 68, 3-Chloro-11-((3-methoxy-2-methylpropyl)amino)-6-methyl-6,11-dihydrodibenzo[c,f][1,2]thiazepine 5,5-dioxide], the EC50 was under 10 µM. With `COCCCNC1c2ccc(Cl)cc2N(C)S(=O)(=O)c2ccccc21` (stereo not drawn) [compound 69, 8-Chloro-11-((3-methoxypropyl)amino)-6-methyl-6,11-dihydrodibenzo [c,f][1,2]thiazepine 5,5-dioxide] the EC50 was under 20 µM. For `COCCCNC1c2ccc(Br)cc2S(=O)(=O)N(C)c2ccsc21` (stereo not drawn) [compound 72, 7-Bromo-10-((3-methoxypropyl)amino)-4-methyl-4, 10-dihydrobenzo[f]thieno[3,2-c][1,2]thiazepine 5,5-dioxide], the EC50 was under 10 µM.
